For the assay, the target named is T1, p53 Y220C (Homo sapiens, UniProt P04637, Y220C).
T1 construct: The recombinant protein was a truncation mutant containing only amino acids 94-312 of p53; made in house; host or cells: E. coli
T1 sequence (P04637 94-312, change not shown): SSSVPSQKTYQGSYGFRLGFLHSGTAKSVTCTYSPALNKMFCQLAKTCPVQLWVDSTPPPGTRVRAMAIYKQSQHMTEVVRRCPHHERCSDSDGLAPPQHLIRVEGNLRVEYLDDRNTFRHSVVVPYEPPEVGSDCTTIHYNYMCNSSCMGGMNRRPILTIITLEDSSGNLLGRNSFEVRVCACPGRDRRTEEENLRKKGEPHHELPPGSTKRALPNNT
Put plainly: In vitro DNA binding activity assay (HTRF / TR-FRET): stabilization of p53 Y220C and increase of its DNA binding activity. The class given is biochemical. As to conditions: recombinant His-tagged p53 Y220C DNA binding domain (aa 94-312), biotin-labeled consensus DNA, incubated at 27° C. or 29° C. for 60 min. The procedure, abridged: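 Stabilization of the mutant is inferred from increased binding of His-tagged p53 Y220C to a biotin-labeled consensus DNA, detected by HTRF with europium-streptavidin and APC-anti-His antibody. The concentration giving a 50% rise over compound-free binding is reported as SC150.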
A general note: TR-FRET usually uses a lanthanide donor and a delayed reading to cut background.
In the case of `COc1cc(S(N)(=O)=O)ccc1NCC#Cc1cc2c(N[C@H]3CCNC[C@H]3F)cccc2n1CC(F)(F)F` [Compound 846A], the “SC150 (concentration of the compound required to increase the DNA binding activity by 50%)” value is on record as “+ (+ = 0 μM ≤ SC150 < 0.05 μM)”.
The value for `COc1cc(C(=O)O)ccc1NCC#Cc1cc2c(N[C@@H]3CCN(C[C@H](C)O)C[C@@H]3F)cccc2n1CC(F)(F)F` (single isomer, unassigned) [Compound 921A] was “+ (+ = 0 μM ≤ SC150 < 0.05 μM)”; that for `COc1cc(S(=O)(=O)Nc2ccon2)ccc1NCC#Cc1cc2c(NC3CCOCC3)cccc2n1CC(F)(F)F` [Compound 992A, 3-methoxy-4-[(3-{4-[(oxan-4-yl)amino]-1-(2,2,2-trifluoroethyl)-1H-indol-2-yl}prop-2-yn-1-yl)amino]-N-(1,2-oxazol-3-yl)benzene-1-sulfonamide] was “+ (+ = 0 μM ≤ SC150 < 0.05 μM)”.
The value for `COc1cc(C(=O)O)ccc1NCC#Cc1cc2c(N[C@H]3CCN(C)C[C@@H]3F)cccc2n1CC(F)(F)F` (racemic) [Compound 833A, rac-4-{[3-(4-{[(3R,4R)-3-fluoro-1-methylpiperidin-4-yl]amino}-1-(2,2,2-trifluoroethyl)-1H-indol-2-yl)prop-2-yn-1-yl]amino}-3-methoxybenzoic acid] was “++ (++ = 0.05 μM ≤ SC150 < 0.1 μM)”; that for `CNC(=O)c1ccc(NCC#Cc2cc3c(N[C@H]4CC[C@@H](N(C)C)CC4)cccc3n2CC(F)(F)F)c(O)c1` [Compound 97A, 3-hydroxy-N-methyl-4-{[3-(4-{[(1S,4S)-4-(dimethylamino)cyclo-hexyl]amino}-1-(2,2,2-trifluoroethyl)-1H-indol-2-yl)prop-2-yn-1-yl]amino}benzamide] was “+ (+ = 0 μM ≤ SC150 < 0.05 μM)”.
Consider `COc1cc(S(C)(=O)=O)ccc1NCC#Cc1cc2c(N[C@@H]3CCN4CCC[C@H]4C3)cccc2n1CC(F)(F)F` [Compound 764A, N-[(7R,8aS)-octahydroindolizin-7-yl]-2-{3-[(4-methanesulfonyl-2-methoxyphfenyl)amino]prop-1-yn-1-yl}-1-(2,2,2-trifluoroethyl)-1H-indol-4-amine], for which the “SC150 (concentration of the compound required to increase the DNA binding activity by 50%)” value was “+ (+ = 0 μM ≤ SC150 < 0.05 μM)”.
In the case of `COC(=O)COc1cc(S(C)(=O)=O)ccc1NCC#Cc1cc2c(N[C@H]3CC[C@H](N4CC5(CCOCC5)C4)CC3)cccc2n1CC(F)(F)F` [Compound 309A, methyl 2-(2-((3-(4-((4-(7-oxa-2-azaspiro[3.5]nonan-2-yl)cyclohexyl)amino)-1-(2,2,2-trifluoroethyl)-1H-indol-2-yl)prop-2-yn-1-yl)amino)-5-(methylsulfonyl)phenoxy)acetate] it was “+ (+ = 0 μM ≤ SC150 < 0.05 μM)”; in that of `COCCN(CCOC)[C@H]1CC[C@@H](Nc2cccc3c2cc(C#CCNc2ccc(S(N)(=O)=O)cc2OC)n3CC(F)(F)F)CC1` [Compound 62A, 3-methoxy-4-{[3-(4-{[(1S,4S)-4-[bis(2-methoxyethyl)amino]cyclo-hexyl]amino}-1-(2,2,2-trifluoroethyl)-1H-indol-2-yl)prop-2-yn-1-yl]amino}benzene-1-sulfonamide], “+ (+ = 0 μM ≤ SC150 < 0.05 μM)”; in that of `COc1cc(C(=O)N[C@@H](CCC(=O)O)C(=O)O)ccc1NCC#Cc1cc2c(N[C@@H]3CCN(C)C[C@@H]3F)cccc2n1CC(F)(F)F` [Compound 929A, (2S)-2-[(4-{[3-(4-{[(3S,4R)-3-fluoro-1-methylpiperidin-4-yl]amino}-1-(2,2,2-trifluoroethyl)-1H-indol-2-yl)prop-2-yn-1-yl]amino}-3-methoxyphenyl)formamido]pentanedioic acid], “+ (+ = 0 μM ≤ SC150 < 0.05 μM)”.
Regarding `COc1cc(S(C)(=O)=O)ccc1NCC#Cc1cc2c(N[C@@H]3CCO[C@@H](C)C3)cccc2n1CC(F)(F)F` [Compound 1016A, 2-{3-[(4-methanesulfonyl-2-methoxyphenyl)amino]prop-1-yn-1-yl}-N-[(2S,4R)-2-methyloxan-4-yl]-1-(2,2,2-trifluoroethyl)-1H-indol-4-amine], the “SC150 (concentration of the compound required to increase the DNA binding activity by 50%)” value is reported as “+ (+ = 0 μM ≤ SC150 < 0.05 μM)”.
The value for `CCOC(=O)c1ccc(NCC#Cc2cc3c(N[C@@H]4CCN(C)C[C@@H]4F)cccc3n2CC(F)(F)F)c(OC)c1` [Compound 839A, Ethyl 4-((3-(4-(((3S,4R)-3-fluoro-1-methylpiperidin-4-yl)amino)-1-(2,2,2-trifluoroethyl)-1H-indol-2-yl)prop-2-yn-1-yl)amino)-3-methoxybenzoate] was “+ (+ = 0 μM ≤ SC150 < 0.05 μM)”; that for `COc1cc(S(=O)(=O)N(C)C)ccc1NCC#Cc1cc2c(NC3CCN(C)CC3)cccc2n1CC(F)(F)F` [Compound 473A, 3-methoxy-N,N-dimethyl-4-[(3-{4-[(1-methylpiperidin-4-yl)amino]-1-(2,2,2-trifluoroethyl)-1H-indol-2-yl}prop-2-yn-1-yl)amino]benzene-1-sulfonamide] was “+ (+ = 0 μM ≤ SC150 < 0.05 μM)”; that for `COc1cc(C(=O)N2CC3(CCOCC3)C2)ccc1NCC#Cc1cc2c(N[C@@H]3CCN(C)C[C@@H]3F)cccc2n1CC(F)(F)F` [Compound 907A, N-[(3S,4R)-3-fluoro-1-methylpiperidin-4-yl]-2-{3-[(2-methoxy-4-{7-oxa-2-azaspiro[3.5]nonane-2-carbonyl}phenyl)amino]prop-1-yn-1-yl}-1-(2,2,2-trifluoroethyl)-1H-indol-4-amine] was “+ (+ = 0 μM ≤ SC150 < 0.05 μM)”.
The value for `COc1cc(S(N)(=O)=O)ccc1NCC#Cc1cc2c(N[C@H]3CC[C@H](N4CC5CC(C4)O5)CC3)cccc2n1CC(F)(F)F` [Compound 400A, 3-methoxy-4-{[3-(4-{[(1R,4R)-4-{6-oxa-3-azabicyclo[3.1.1]heptan-3-yl}cyclohexyl]amino}-1-(2,2,2-trifluoroethyl)-1H-indol-2-yl)prop-2-yn-1-yl]amino}benzene-1-sulfonamide] was “+ (+ = 0 μM ≤ SC150 < 0.05 μM)”.
For the compound `COc1cc(S(C)(=O)=O)ccc1NCC#Cc1cc2c(NC3CCN(C4CCOCC4)C3)cccc2n1CC(F)(F)F` (centres unmarked) [Compound 458A, 2-{3-[(4-methanesulfonyl-2-methoxyphenyl)amino]prop-1-yn-1-yl}-N-[1-(oxan-4-yl)pyrrolidin-3-yl]-1-(2,2,2-trifluoroethyl)-1H-indol-4-amine], the “SC150 (concentration of the compound required to increase the DNA binding activity by 50%)” value is “+ (+ = 0 μM ≤ SC150 < 0.05 μM)”.
In the case of `COc1cc(S(C)(=O)=O)ccc1NCC#Cc1cc2c(N[C@@H]3CCN(C)C[C@@H]3F)cccc2n1CC(F)(F)F` [Compound 772A, N-[(3S,4R)-3-fluoro-1-methylpiperidin-4-yl]-2-{3-[(4-methanesulfonyl-2-methoxyphenyl)amino]prop-1-yn-1-yl}-1-(2,2,2-trifluoroethyl)-1H-indol-4-amine] it was “+ (+ = 0 μM ≤ SC150 < 0.05 μM)”; in that of `CN[C@H]1CC[C@@H](Nc2cccc3c2cc(C#CCNc2ccc(S(C)(=O)=O)cc2OC)n3CC(F)(F)F)[C@H](F)C1` [Compound 937A], “+ (+ = 0 μM ≤ SC150 < 0.05 μM)”.
